The target of the assay is E. coli cysteinyl-tRNA synthetase (EcCysRS) (Escherichia coli, UniProt P21888). The assay is described as follows: aminoacylation of E. coli tRNA-Cys with […]-Cys by purified CysRS. Format: biochemical.
Chain of E. coli cysteinyl-tRNA synthetase (EcCysRS) (P21888 whole entry): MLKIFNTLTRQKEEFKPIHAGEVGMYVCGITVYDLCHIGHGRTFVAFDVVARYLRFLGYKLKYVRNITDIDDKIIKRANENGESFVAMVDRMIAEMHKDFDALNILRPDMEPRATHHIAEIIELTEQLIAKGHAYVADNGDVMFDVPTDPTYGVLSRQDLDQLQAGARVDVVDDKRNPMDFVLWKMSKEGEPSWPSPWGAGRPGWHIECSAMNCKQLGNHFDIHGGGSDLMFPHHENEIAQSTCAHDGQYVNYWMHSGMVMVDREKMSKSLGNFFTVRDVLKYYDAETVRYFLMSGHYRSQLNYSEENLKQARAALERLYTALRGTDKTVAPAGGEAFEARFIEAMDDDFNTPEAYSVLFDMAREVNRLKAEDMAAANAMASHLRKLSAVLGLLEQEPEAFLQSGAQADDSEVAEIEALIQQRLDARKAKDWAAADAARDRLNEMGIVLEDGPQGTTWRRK

`Nc1ncnc2c1ncn2[C@@H]1O[C@H](COS(=O)(=O)NC(=O)[C@@H](N)CS)[C@@H](O)[C@H]1O` [Cys-AMS] had an IC50 of less than 600 nM.

In general, IC50 refers to the point on the concentration scale where inhibition reaches its midpoint.

These data come from PMC5511029 (Journal of molecular biology, 2017).
